Literature values in patent US20250231185A1, “Coronavirus T Cell Epitopes, Megapools and Uses Thereof” (La Jolla Institute for Immunology, priority 2021, published 2025).

System: CD8+ T cells
Conditions: CD8R (D) megapool epitopes; dominant = recognized by 3 or more donors/different studies; cited from earlier work

| Substance | Dominant |
| --- | --- |
| 1746 (SYATHSDKF) [compound 1746] | Yes (more dominant epitopes are defined by being recognized by 3 or more donors/different studies) |
| 1725 (FYAYLRKHF) [compound 1725] | Yes (more dominant epitopes are defined by being recognized by 3 or more donors/different studies) |
| 1733 (VVYRGTTTY) [compound 1733] | Yes (more dominant epitopes are defined by being recognized by 3 or more donors/different studies) |
| 1813 (KLFIRQEEV) [compound 1813] | Yes (more dominant epitopes are defined by being recognized by 3 or more donors/different studies) |
| 1753 (MLWCKDGHV) [compound 1753] | Yes (more dominant epitopes are defined by being recognized by 3 or more donors/different studies) |
| 1745 (ALLADKFPV) [compound 1745] | Yes (more dominant epitopes are defined by being recognized by 3 or more donors/different studies) |
| 1803 (IVGVALLAVF) [compound 1803] | Yes (more dominant epitopes are defined by being recognized by 3 or more donors/different studies) |
| 1735 (VYRGTTTYKL) [compound 1735] | Yes (more dominant epitopes are defined by being recognized by 3 or more donors/different studies) |

Same assay, conditions: CD8RE megapool peptides (non-spike SARS-CoV-2 antigens); dominant epitope Yes/No; cited from earlier work

| Substance | Dominant |
| --- | --- |
| 2958 (MVMCGGSLYV) [compound 2958] | Yes (more dominant epitopes are defined by being recognized by 3 or more donors/different studies) |
| 3049 (VFITLCFTLK) [compound 3049] | Yes (more dominant epitopes are defined by being recognized by 3 or more donors/different studies) |
| 3018 (FLNRFTTTL) [compound 3018] | Yes (more dominant epitopes are defined by being recognized by 3 or more donors/different studies) |
| 2906 (NRFLYIIKL) [compound 2906] | Yes (more dominant epitopes are defined by being recognized by 3 or more donors/different studies) |
| 2902 (YVYSRVKNL) [compound 2902] | Yes (more dominant epitopes are defined by being recognized by 3 or more donors/different studies) |
| 2949 (YTMADLVYAL) [compound 2949] | Yes (more dominant epitopes are defined by being recognized by 3 or more donors/different studies) |
| 2963 (LYLQYIRKL) [compound 2963] | Yes (more dominant epitopes are defined by being recognized by 3 or more donors/different studies) |
| 3008 (FLPRVFSAV) [compound 3008] | Yes (more dominant epitopes are defined by being recognized by 3 or more donors/different studies) |
| 2970 (VYRGTTTYKL) [compound 2970] | Yes (more dominant epitopes are defined by being recognized by 3 or more donors/different studies) |
| 2909 (RLFARTRSMW) [compound 2909] | Yes (more dominant epitopes are defined by being recognized by 3 or more donors/different studies) |
| 2938 (GMSRIGMEV) [compound 2938] | Yes (more dominant epitopes are defined by being recognized by 3 or more donors/different studies) |
| 2969 (VVYRGTTTYK) [compound 2969] | Yes (more dominant epitopes are defined by being recognized by 3 or more donors/different studies) |
| 2928 (VLQLPQGTTL) [compound 2928] | Yes (more dominant epitopes are defined by being recognized by 3 or more donors/different studies) |
| 2957 (RLYYDSMSY) [compound 2957] | Yes (more dominant epitopes are defined by being recognized by 3 or more donors/different studies) |
| 3003 (ASMPTTIAK) [compound 3003] | Yes (more dominant epitopes are defined by being recognized by 3 or more donors/different studies) |
| 3038 (IVGVALLAVF) [compound 3038] | Yes (more dominant epitopes are defined by being recognized by 3 or more donors/different studies) |
| 3025 (SEFSSLPSY) [compound 3025] | Yes (more dominant epitopes are defined by being recognized by 3 or more donors/different studies) |
| 3000 (YLATALLTL) [compound 3000] | Yes (more dominant epitopes are defined by being recognized by 3 or more donors/different studies) |
| 2998 (QEILGTVSW) [compound 2998] | Yes (more dominant epitopes are defined by being recognized by 3 or more donors/different studies) |
| 3041 (VYFLQSINF) [compound 3041] | Yes (more dominant epitopes are defined by being recognized by 3 or more donors/different studies) |
| 2950 (TMADLVYAL) [compound 2950] | Yes (more dominant epitopes are defined by being recognized by 3 or more donors/different studies) |
| 3021 (MPASWVMRI) [compound 3021] | Yes (more dominant epitopes are defined by being recognized by 3 or more donors/different studies) |

Same assay, conditions: SARS-CoV-2-derived CD8 epitopes; dominant = recognized by 3 or more donors/different studies; cited from earlier work

| Substance | Dominant |
| --- | --- |
| 533 (AQFAPSASAF) [compound 533] | Yes (more dominant epitopes are defined by being recognized by 3 or more donors/different studies) |
| 540 (GMEVTPSGTWLTY) [compound 540] | Yes (more dominant epitopes are defined by being recognized by 3 or more donors/different studies) |

Same assay, conditions: SARS-CoV-2 Ag S; T cell type recognizing the epitope; cited from earlier work

| Substance | Restriction |
| --- | --- |
| 1395 (FAMQMAYRF) [compound 1395] | CD8 |
| 1424 (FPQSAPHGV) [compound 1424] | CD8 |
| 1343 (AEHVNNSY) [compound 1343] | CD8 |
| 1406 (RLDKVEAEVQI) [compound 1406] | CD8 |
| 1341 (STGSNVFQTR) [compound 1341] | CD8 |
| 1410 (AEVQIDRLI) [compound 1410] | CD8 |
| 1385 (LLTDEMIAQY) [compound 1385] | CD8 |
| 1329 (DAVRDPQTL) [compound 1329] | CD8 |
| 1354 (LGAENSVAY) [compound 1354] | CD8 |
| 1384 (LPPLLTDEM) [compound 1384] | CD8 |

Same assay, conditions: T cell subset (CD4 or CD8) recognizing the SARS-CoV-2-derived epitope; cited from earlier work

| Substance | Restriction |
| --- | --- |
| 544 (VTPSGTWLTY) [compound 544] | CD8 |
| 573 (ITILDGISQY) [compound 573] | CD8 |
| 560 (APHGHVMVEL) [compound 560] | CD8 |
| 534 (QFAPSASAFF) [compound 534] | CD8 |
| 673 (GEAANFCAL) [compound 673] | CD8 |
| 529 (ELIRQGTDY) [compound 529] | CD8 |
| 543 (EVTPSGTWLTY) [compound 543] | CD8 |
| 621 (ESKPSVEQR) [compound 621] | CD8 |
| 533 (AQFAPSASAF) [compound 533] | CD8 |
| 540 (GMEVTPSGTWLTY) [compound 540] | CD8 |
| 692 (YYKKDNSYF) [compound 692] | CD8 |

Same assay, conditions: T cell type (CD4 or CD8) recognizing the SARS-CoV-2 epitope; cited from earlier work

| Substance | Restriction |
| --- | --- |
| 1007 (LPYPDPSRIL) [compound 1007] | CD8 |
| 1048 (EEAIRHVRAW) [compound 1048] | CD8 |
| 981 (VENPHLMGWD) [compound 981] | CD8 |
| 979 (ATVVIGTSK) [compound 979] | CD8 |
| 962 (YRYNLPTMC) [compound 962] | CD8 |
| 1038 (IPARARVECF) [compound 1038] | CD8 |
| 985 (LRIMASLVL) [compound 985] | CD8 |
| 958 (AAISDYDYYR) [compound 958] | CD8 |
| 978 (IAATRGATV) [compound 978] | CD8 |
| 924 (FDIYNDKVAGF) [compound 924] | CD8 |
| 977 (SICSTMTNR) [compound 977] | CD8 |
